Holding throughout (parameters): concentration or dose not given beside the values
In assay [1] the target is Human immunodeficiency virus type 1 integrase (Human immunodeficiency virus 1) (UniProt Q7ZJM1). Nature of the assay: Binding affinity to HIV-1 integrase measured after overnight incubation by chemiluminescence analysis relative to IN 118-128.
Assay [2] deals with Human immunodeficiency virus 1. The experiment in a line: Binding affinity to HLT-tagged HIV-1 Rev measured after overnight incubation by chemiluminescence analysis relative to IN 118-128.
In assay [3] the target is Human immunodeficiency virus type 1 integrase (Human immunodeficiency virus 1) (UniProt Q7ZJM1). Nature of the assay: Binding affinity to HIV-1 integrase measured after overnight incubation by chemiluminescence analysis relative to IN 174-188.
The test system of assay [4] is Human immunodeficiency virus 1. Nature of the assay: Binding affinity to HLT-tagged HIV-1 Rev measured after overnight incubation by chemiluminescence analysis relative to IN 174-188.

Data on 23 compounds can be found in ChEMBL document CHEMBL3217454, “Structureactivity relationship studies using peptide arrays: the example of HIV-1 Revintegrase interaction” (Medchemcomm, 2013).

The structures appear in SMILES notation. Square brackets hold non-standard residues; d marks the D form. Peptide text beside a SMILES is read from it. NMeT = CN[C@H](C(=O)O)[C@@H](C)O; NMeK = CN[C@@H](CCCCN)C(=O)O; NMeA = CN[C@@H](C)C(=O)O

Sequence of Human immunodeficiency virus type 1 integrase (Human immunodeficiency virus 1) (Q7ZJM1 as listed by the source): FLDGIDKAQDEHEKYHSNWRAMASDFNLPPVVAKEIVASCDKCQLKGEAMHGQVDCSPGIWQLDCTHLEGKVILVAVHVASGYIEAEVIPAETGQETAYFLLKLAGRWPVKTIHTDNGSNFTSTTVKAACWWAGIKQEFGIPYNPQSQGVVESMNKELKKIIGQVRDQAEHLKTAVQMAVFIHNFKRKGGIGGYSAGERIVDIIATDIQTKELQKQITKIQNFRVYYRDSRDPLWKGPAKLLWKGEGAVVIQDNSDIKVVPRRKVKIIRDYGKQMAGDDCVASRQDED

For the compound `CC(C)[C@H](NC(=O)[C@@H](NC(=O)[C@H](NC(=O)[C@H](CO)NC(=O)[C@@H](NC(=O)[C@H](Cc1ccccc1)NC(=O)[C@H](CC(N)=O)NC(=O)[C@H](CO)NC(=O)CN)[C@@H](C)O)[C@@H](C)O)[C@@H](C)O)C(=O)N[C@@H](CCCCN)C(=O)N[C@@H](C)C(=O)O`, the results for the Activity in assay [1] and in assay [2] were 150% and 176%, respectively.
For `CC(C)[C@H](NC(=O)[C@@H](NC(=O)[C@@H](NC(=O)[C@H](CO)NC(=O)[C@@H](NC(=O)[C@H](Cc1ccccc1)NC(=O)[C@H](CC(N)=O)NC(=O)[C@@H](N)CO)[C@@H](C)O)[C@@H](C)O)[C@@H](C)O)C(=O)N[C@@H](CCCCN)C(=O)N[C@@H](C)C(=O)O` (H-SNFTSTTVKA-OH), the Activity worked out at 207% in assay [1] and 177% in assay [2].
The corresponding values for `CC(C)[C@H](NC(=O)[C@@H](NC(=O)[C@@H](NC(=O)[C@H](CO)NC(=O)[C@@H](NC(=O)[C@H](Cc1ccccc1)NC(=O)[C@H](CC(N)=O)NC(=O)[C@H](CO)NC(=O)[C@H](C)N)[C@@H](C)O)[C@@H](C)O)[C@@H](C)O)C(=O)N[C@@H](CCCCN)C(=O)N[C@@H](C)C(=O)O` (H-ASNFTSTTVKA-OH) are 116% and 77%.
On to `CC(C)[C@H](NC(=O)[C@@H](NC(=O)[C@@H](NC(=O)[C@@H](CO)NC(=O)[C@@H](NC(=O)[C@H](Cc1ccccc1)NC(=O)[C@H](CC(N)=O)NC(=O)[C@H](CO)NC(=O)CN)[C@@H](C)O)[C@@H](C)O)[C@@H](C)O)C(=O)N[C@@H](CCCCN)C(=O)N[C@@H](C)C(=O)O`, for which the values for the Activity in assay [1] and in assay [2] were 92% and 124%, respectively.
For the compound `C[C@@H](O)[C@H](NC(=O)[C@H](CO)NC(=O)[C@@H](NC(=O)[C@H](Cc1ccccc1)NC(=O)[C@H](CC(N)=O)NC(=O)[C@H](CO)NC(=O)CN)[C@@H](C)O)C(=O)O` (H-GSNFTST-OH), the figures for the Activity in assay [1] and in assay [2] were 34% and 0%, respectively.
`CC(C)[C@H](NC(=O)[C@H]([C@@H](C)O)N(C)C(=O)[C@@H](NC(=O)[C@H](CO)NC(=O)[C@@H](NC(=O)[C@H](Cc1ccccc1)NC(=O)[C@H](CC(N)=O)NC(=O)[C@H](CO)NC(=O)CN)[C@@H](C)O)[C@@H](C)O)C(=O)N[C@@H](CCCCN)C(=O)N[C@@H](C)C(=O)O` (H-GSNFTST[NMeT]VKA-OH): the results for the Activity in assay [1] and in assay [2] were 265% and 168%, respectively.
Consider `CC(C)[C@H](NC(=O)[C@@H](NC(=O)[C@@H](NC(=O)[C@H](CO)NC(=O)[C@@H](NC(=O)[C@H](C)NC(=O)[C@H](CC(N)=O)NC(=O)[C@H](CO)NC(=O)CN)[C@@H](C)O)[C@@H](C)O)[C@@H](C)O)C(=O)N[C@@H](CCCCN)C(=O)N[C@@H](C)C(=O)O` (H-GSNATSTTVKA-OH), for which the results for the Activity in assay [1] and in assay [2] were 133% and 31%, respectively.
The corresponding values for `CC(C)[C@H](NC(=O)[C@@H](NC(=O)[C@@H](NC(=O)[C@H](CO)NC(=O)[C@@H](NC(=O)[C@H](Cc1ccccc1)NC(=O)[C@@H](CC(N)=O)NC(=O)[C@H](CO)NC(=O)CN)[C@@H](C)O)[C@@H](C)O)[C@@H](C)O)C(=O)N[C@@H](CCCCN)C(=O)N[C@@H](C)C(=O)O` are 133% and 144%.
For `CC(C)[C@H](NC(=O)[C@@H](NC(=O)[C@@H](NC(=O)[C@H](CO)NC(=O)[C@@H](NC(=O)[C@H](Cc1ccccc1)NC(=O)[C@H](CC(N)=O)NC(=O)[C@H](CO)NC(=O)CN)[C@@H](C)O)[C@@H](C)O)[C@@H](C)O)C(=O)N(C)[C@@H](CCCCN)C(=O)N[C@@H](C)C(=O)O` (H-GSNFTSTTV[NMeK]A-OH), the values for the Activity in assay [1] and in assay [2] were 185% and 191%, respectively.
On to `CC(C)[C@H](NC(=O)[C@@H](NC(=O)[C@@H](NC(=O)[C@H](CO)NC(=O)[C@@H](NC(=O)[C@H](Cc1ccccc1)NC(=O)[C@H](CC(N)=O)NC(=O)[C@H](CO)NC(=O)CN)[C@@H](C)O)[C@@H](C)O)[C@@H](C)O)C(=O)N[C@@H](CCCCN)C(=O)N(C)[C@@H](C)C(=O)O` (H-GSNFTSTTVK[NMeA]-OH), for which the results for the Activity in assay [1] and in assay [2] were 136% and 141%, respectively.
Consider `C[C@@H](O)[C@H](NC(=O)[C@@H](NC(=O)[C@H](CO)NC(=O)[C@@H](NC(=O)[C@H](Cc1ccccc1)NC(=O)[C@H](CC(N)=O)NC(=O)[C@H](CO)NC(=O)CN)[C@@H](C)O)[C@@H](C)O)C(=O)O` (H-GSNFTSTT-OH), for which the Activity in assay [1] was 19%; in assay [2] it was 0%.
As to `C[C@@H](O)[C@H](NC(=O)[C@H](Cc1ccccc1)NC(=O)[C@H](CC(N)=O)NC(=O)[C@H](CO)NC(=O)CN)C(=O)N[C@@H](CO)C(=O)O` (H-GSNFTS-OH), the Activity in assay [1] and in assay [2] was 0% throughout.
As to `CC(C)[C@H](NC(=O)[C@@H](NC(=O)[C@@H](NC(=O)[C@H](CO)NC(=O)[C@H](NC(=O)[C@H](Cc1ccccc1)NC(=O)[C@H](CC(N)=O)NC(=O)[C@H](CO)NC(=O)CN)[C@@H](C)O)[C@@H](C)O)[C@@H](C)O)C(=O)N[C@@H](CCCCN)C(=O)N[C@@H](C)C(=O)O`, the figures for the Activity in assay [1] and in assay [2] were 58% and 52%, respectively.
The corresponding values for `CC(C)[C@H](NC(=O)[C@@H](NC(=O)[C@H](C)NC(=O)[C@H](CO)NC(=O)[C@@H](NC(=O)[C@H](Cc1ccccc1)NC(=O)[C@H](CC(N)=O)NC(=O)[C@H](CO)NC(=O)CN)[C@@H](C)O)[C@@H](C)O)C(=O)N[C@@H](CCCCN)C(=O)N[C@@H](C)C(=O)O` (H-GSNFTSATVKA-OH) are 231% and 107%.
Consider `CC[C@H](C)[C@H](NC(=O)[C@H](Cc1ccccc1)NC(=O)[C@@H](NC(=O)[C@H](C)NC(=O)[C@H](CCSC)NC(=O)[C@H](CCC(N)=O)NC(=O)[C@@H](NC(=O)[C@H](C)NC(=O)[C@@H](N)[C@@H](C)O)C(C)C)C(C)C)C(=O)N[C@@H](Cc1cnc[nH]1)C(=O)N[C@@H](CC(N)=O)C(=O)N[C@@H](Cc1ccccc1)C(=O)N[C@H](CCCCN)C(=O)N[C@@H](CCCNC(=N)N)C(=O)N[C@@H](CCCCN)C(=O)O`, for which the values for the Activity in assay [3] and in assay [4] were 110% and 120%, respectively.
As to `CC[C@H](C)[C@H](NC(=O)[C@H](Cc1ccccc1)NC(=O)[C@@H](NC(=O)[C@H](C)N)C(C)C)C(=O)N[C@@H](Cc1cnc[nH]1)C(=O)N[C@@H](CC(N)=O)C(=O)N[C@@H](Cc1ccccc1)C(=O)N[C@@H](CCCCN)C(=O)N[C@@H](CCCNC(=N)N)C(=O)N[C@@H](CCCCN)C(=O)O` (H-AVFIHNFKRK-OH), the Activity is 120% in assay [3] and 111% in assay [4].
As for `CC[C@H](C)[C@H](NC(=O)[C@H](Cc1ccccc1)NC(=O)[C@@H](NC(=O)[C@H](C)NC(=O)[C@H](CCSC)NC(=O)[C@H](CCC(N)=O)NC(=O)[C@@H](NC(=O)[C@H](C)NC(=O)[C@@H](N)[C@@H](C)O)C(C)C)C(C)C)C(=O)N[C@@H](Cc1cnc[nH]1)C(=O)N[C@@H](CC(N)=O)C(=O)N[C@@H](Cc1ccccc1)C(=O)N(C)[C@@H](CCCCN)C(=O)N[C@@H](CCCNC(=N)N)C(=O)N[C@@H](CCCCN)C(=O)O` (H-TAVQMAVFIHNF[NMeK]RK-OH), the Activity in assay [3] was 130%; in assay [4] it was 70%.
Regarding `CC[C@H](C)[C@H](NC(=O)[C@H](Cc1ccccc1)NC(=O)[C@H](C)NC(=O)[C@H](C)NC(=O)[C@H](CCSC)NC(=O)[C@H](CCC(N)=O)NC(=O)[C@@H](NC(=O)[C@H](C)NC(=O)[C@@H](N)[C@@H](C)O)C(C)C)C(=O)N[C@@H](Cc1cnc[nH]1)C(=O)N[C@@H](CC(N)=O)C(=O)N[C@@H](Cc1ccccc1)C(=O)N[C@@H](CCCCN)C(=O)N[C@@H](CCCNC(=N)N)C(=O)N[C@@H](CCCCN)C(=O)O` (H-TAVQMAAFIHNFKRK-OH), the Activity is 123% in assay [3] and 222% in assay [4].
On to `CC[C@H](C)[C@H](NC(=O)[C@H](Cc1ccccc1)NC(=O)[C@@H](NC(=O)[C@H](C)NC(=O)[C@H](CCSC)NC(=O)[C@H](CCC(N)=O)NC(=O)[C@@H](NC(=O)[C@H](C)NC(=O)[C@H](C)N)C(C)C)C(C)C)C(=O)N[C@@H](Cc1cnc[nH]1)C(=O)N[C@@H](CC(N)=O)C(=O)N[C@@H](Cc1ccccc1)C(=O)N[C@@H](CCCCN)C(=O)N[C@@H](CCCNC(=N)N)C(=O)N[C@@H](CCCCN)C(=O)O` (H-AAVQMAVFIHNFKRK-OH), for which the figures for the Activity in assay [3] and in assay [4] were 83% and 80%, respectively.
The corresponding values for `CC[C@H](C)[C@H](NC(=O)[C@H](Cc1ccccc1)NC(=O)[C@@H](NC(=O)[C@H](C)NC(=O)[C@H](CCSC)NC(=O)[C@H](CCC(N)=O)NC(=O)[C@@H](NC(=O)[C@H](C)N)C(C)C)C(C)C)C(=O)N[C@@H](Cc1cnc[nH]1)C(=O)N[C@@H](CC(N)=O)C(=O)N[C@@H](Cc1ccccc1)C(=O)N[C@@H](CCCCN)C(=O)N[C@@H](CCCNC(=N)N)C(=O)N[C@@H](CCCCN)C(=O)O` (H-AVQMAVFIHNFKRK-OH) are 99% and 141%.
`CC[C@H](C)[C@H](NC(=O)[C@H](Cc1ccccc1)NC(=O)[C@@H](NC(=O)[C@H](C)NC(=O)[C@H](CCSC)NC(=O)[C@H](CCC(N)=O)NC(=O)[C@@H](NC(=O)[C@H](C)NC(=O)[C@@H](N)[C@@H](C)O)C(C)C)C(C)C)C(=O)N[C@@H](Cc1cnc[nH]1)C(=O)N[C@@H](CC(N)=O)C(=O)N[C@@H](Cc1ccccc1)C(=O)N[C@@H](CCCCN)C(=O)N[C@@H](CCCNC(=N)N)C(=O)N[C@H](CCCCN)C(=O)O`: the Activity is 86% in assay [3] and 110% in assay [4].
`CC[C@H](C)[C@H](NC(=O)[C@H](Cc1ccccc1)NC(=O)[C@@H](NC(=O)[C@H](C)NC(=O)[C@H](CCSC)NC(=O)[C@H](CCC(N)=O)NC(=O)[C@@H](NC(=O)[C@H](C)NC(=O)[C@@H](N)[C@@H](C)O)C(C)C)C(C)C)C(=O)N[C@@H](Cc1cnc[nH]1)C(=O)O` (H-TAVQMAVFIH-OH): the Activity in assay [3] and in assay [4] was 0% in each case.
Consider `CC[C@H](C)[C@H](NC(=O)[C@H](Cc1ccccc1)NC(=O)[C@@H](NC(=O)[C@H](C)NC(=O)[C@H](CCSC)NC(=O)[C@H](CCC(N)=O)NC(=O)[C@@H](NC(=O)[C@@H](C)NC(=O)[C@@H](N)[C@@H](C)O)C(C)C)C(C)C)C(=O)N[C@@H](Cc1cnc[nH]1)C(=O)N[C@@H](CC(N)=O)C(=O)N[C@@H](Cc1ccccc1)C(=O)N[C@@H](CCCCN)C(=O)N[C@@H](CCCNC(=N)N)C(=O)N[C@@H](CCCCN)C(=O)O`, for which the results for the Activity in assay [3] and in assay [4] were 105% and 209%, respectively.
